From patent US20070155687A1, “Methods and compositions for altering cell function” (Alltech, Inc., priority 2005, published 2007)

Assays:
Format in all cases: in vivo
[1] = test system: Thioredoxin Reductase 1 (Trx-1); experiment: Intestinal gene expression: Thioredoxin Reductase 1; details: mouse intestine; diet 1 ppm Se, 100 days; vs selenium deficient; all p < 0.01
Source text: (§1) Animal Care. Male C57BL/6J mice were housed singly and started on the experimental diets described below immediately after weaning (21 days of age). The mice were maintained in the Shared Aging Rodent Facility at the William S. Middleton Memorial Veterans Administration Medical Center (Madison, Wis.). Temperature and humidity were maintained at constant levels. Room light was controlled to provide 12-hr cycles of light and dark.
(§2) Experimental diets were created by Harlan Teklad (Madison, Wis.). Selenium content of the diets was determined by Covance Inc. (Madison, Wis.). Five (5) animals were included in each of the following treatment groups: a diet deficient in selenium (SD); a diet supplemented with selenomethionine (SM, obtained from Sigma, St. Louis, Mo.) such that the final selenium content of the diet was one (1) part per million; a diet supplemented with sodium selenite (SS, Sigma) such that the final concentration of selenium in this diet was one (1) part per million; or a diet supplemented with the yeast selenium SEL-PLEX (SP, Alltech, Lexington, Ky), such that the final concentration of selenium in this diet was one (1) part per million. SEL-PLEX. […]
(§3) Tissue sample preparation and microarray analysis. […] For intestinal expression studies, the intestine was flushed twice with saline solution and small intestine was measured and divided in three equal segments. […]

Selenoprotein W (SelW) = experiment: Intestinal gene expression: Selenoprotein W; details: mouse intestine; diet 1 ppm Se, 100 days; vs selenium deficient
Source text: as §1, §2, §3

selenoprotein N1 (Sepn1) = experiment: Intestinal gene expression: selenoprotein N1; details: mouse intestine; diet 1 ppm Se, 100 days; vs selenium deficient
Source text: as §1, §2, §3

[2] = test system: SelR (also known as Selenoprotein X1); experiment: Intestinal gene expression: SelR; details: mouse intestine; diet 1 ppm Se, 100 days; vs selenium deficient
Source text: as §1, §2, §3

Glyoxalase 1 (Glo 1) = experiment: Intestinal gene expression: Glo1; details: mouse intestine; diet 1 ppm Se, 100 days; vs selenium deficient
Source text: as §1, §2, §3

[3] = test system: Growth arrest and DNA-damage-inducible 45 gamma. (Gadd45g); experiment: Intestinal gene expression: Gadd45g; details: mouse intestine, diet 1 ppm Se, 100 days, vs selenium deficient, negative = down
Source text: as §1
Experimental diets were created by Harlan Teklad (Madison, Wis.). Selenium content of the diets was determined by Covance Inc. (Madison, Wis.). Five (5) animals were included in each of the following treatment groups: a diet deficient in selenium (SD); a diet supplemented with selenomethionine (SM, obtained from Sigma, St. Louis, Mo.) such that the final selenium content of the diet was one (1) part per million; a diet supplemented with sodium selenite (SS, Sigma) such that the final concentration of selenium in this diet was one (1) part per million; or a diet supplemented with the yeast selenium SEL-PLEX (SP, Alltech, Lexington, Ky), such that the final concentration of selenium in this diet was one (1) part per million. SEL-PLEX. Mice were provided with water and their respective diet ad libitum for 100 days. Diets were stored at the dark at 4° C. and fresh diet was added to feeder twice weekly.
Tissue sample preparation and microarray analysis. Mice were killed at 100 days of age by cervical dislocation. For intestinal expression studies, the intestine was flushed twice with saline solution and small intestine was measured and divided in three equal segments. A 3-cm region of the middle segment of the small intestine corresponding to the jejunum (˜300 mg of tissue) was cut and rinsed again with physiological saline to completely remove contents, flash frozen in liquid nitrogen and stored at −80° C. For brain (e.g., cerebral cortex) studies, the cerebral cortex was separated from the surrounding brain tissue and was flash frozen in liquid nitrogen and stored at −80° C. […]

[4] = test system: transforming growth factor beta 2 (TGF-β2); experiment: Intestinal gene expression: TGF-β2; details: mouse intestine; diet 1 ppm Se, 100 days; compared to controls
Source text: as §1, §2, §3

Neurogenin 3 (Neurog3) = experiment: Intestinal gene expression: Neurog3; details: mouse intestine; diet 1 ppm Se, 100 days; vs selenium deficient
Source text: as §1, §2, §3

[5] = test system: Amyloid beta (A4) precursor protein-binding, family A, member 1(Apba1); experiment: Cerebral cortex gene expression: Apba1; details: mouse cerebral cortex; diet 1 ppm Se, 100 days; * significant relative to Se-deficient animals, P < 0.01
Source text: as §1, §2, §3

Gst zeta 1 (Gstz1) = experiment: Brain gene expression: Gstz1; details: mouse brain; diet 1 ppm Se, 100 days; * significant relative to Se-deficient animals
Source text: as §1, §2, §3

calpain-5 = experiment: Expression level of calpain genes after selenium administration; details: signed change (+ up, − down); tissue not stated; * not explained
Protocol: Compositions and methods of the present invention were analyzed to determine if they were capable of altering the expression levels of calpain genes. Compositions comprising various forms of selenium (e.g., SeM, Sod-sel, and SEL-PLEX) were administered to subjects and the expression levels of calpain genes monitored. The expression level of calpain-5 was altered by treatment in the following ways: free selenomethionine (SM)+1.32*, Sod-sel−1.07, SEL-PLEX−1.44*.

SOD1 = experiment: Intestinal gene expression: SOD1; details: mouse intestine; diet 1 ppm Se, 100 days; vs selenium deficient
Source text: as §1, §2, §3

[6] = test system: Cu chaperone for SOD, (CCS); experiment: Intestinal gene expression: Cu chaperone for SOD; details: mouse intestine; diet 1 ppm Se, 100 days; vs selenium deficient
Source text: as §1, §2, §3

[7] = test system: Glutathione S-transferase, mu1 (Gstm1); experiment: Intestinal gene expression: Gstm1; details: mouse intestine; diet 1 ppm Se, 100 days; vs Se-deficient diets; negative = down; NS = not significant
Source text: as §1, §2, §3

[8] = test system: Glutathione S-transferase, mu2 (Gstm2); experiment: Intestinal gene expression: Gstm2; details: mouse intestine; diet 1 ppm Se, 100 days; vs Se-deficient diets; negative = down; NS = not significant
Source text: as §1, §2, §3

[9] = test system: Glutathione S-transferase, theta 2 (Gstt2); experiment: Intestinal gene expression: Gstt2; details: mouse intestine; diet 1 ppm Se, 100 days; vs Se-deficient diets; negative = down; NS = not significant
Source text: as §1, §2, §3

C[Se]CC[C@H](N)C(=O)O [SeM, selenomethionine] was tested, and the “fold increase in expression of the Thioredoxin Reductase 1 gene” value [1] was 1.8 fold, the “Selenoprotein W (SelW) expression, upregulated” value (Selenoprotein W (SelW)) was “not significantly altered” and the “selenoprotein N1 (Sepn1) expression level, increased” value (selenoprotein N1 (Sepn1)) was “not significantly affected”. For the same molecule, the “SelR gene expression, upregulated” value [2] was “not significantly affected”, the “Glo1 expression, reduction of expression” value (Glyoxalase 1 (Glo 1)) was “not significantly affected” and the “FC Gadd45g expression” value [3] was “decreased expression”. For the same molecule, the “FC Gadd45g expression” value ([3]; listed as SM) was −1.5 (p < 0.05) fold, the “TGF-β2 expression, upregulated” value [4] was “not altered” and the “Neurog3 expression, upregulated” value (Neurogenin 3 (Neurog3)) was “no significant alteration”. The “FC Apba1 expression” value [5] was 1.08 fold, the “FC Gstz1 expression” value (Gst zeta 1 (Gstz1)) was −1.08 fold and the “expression level of calpain-5 altered by treatment” value (calpain-5) was “+1.32”.

In the case of O=[Se](O)O [Sod-sel, sodium selenite], the “Selenoprotein W (SelW) expression, upregulated” value (Selenoprotein W (SelW)) is reported as 5.1 fold, the “SelR gene expression, upregulated” value [2] is reported as 1.3 fold and the “enhanced expression of SOD1” value (SOD1) is reported as 1.92 fold. The “enhancement in the expression of the Cu chaperone for SOD (CCS)” value [6] was 1.28 fold, the “FC Gadd45g expression” value ([3]; listed as SS) was −2.0 (p < 0.01) fold and the “FC Gstm1 expression” value [7] was −2.4 fold. The “FC Gstm2 expression” value [8] was −2.1 fold, the “FC Gstt2 expression” value [9] was −1.3 fold and the “FC Apba1 expression” value [5] was −1.41 fold. For the same molecule, the “FC Gstz1 expression” value (Gst zeta 1 (Gstz1)) was −1.3 fold.
